# Laboratory results as given in patent publication US20230047102A1, “PHARMACEUTICAL COMPOSITIONS COMPRISING N-[1-(5-CYANO-PYRIDIN-2-YLMETHYL)-1H-PYRAZOL-3-YL]-2-[4-(1-TRIFLUOROMETHYL-CYCLOPROPYL)-PHENYL]-ACETAMIDE” (Idorsia Pharmaceuticals Ltd, priority 2019, published 2023).
# Assays:
# [1] = subject to certain variations of this value found in the literature; cited from earlier work
# [2] = Steady-state exposure with 60 mg once-daily dose in adults; assay type: in vivo, human; settings: 60 mg once-daily dose at steady state in adults; 95% confidence interval 11.2, 16.7
# Experimental: The starting dose of study treatment for the sentinel cohort (dose level 1) will be based on body weight categories (based on subjects' body weight on Day 1), as detailed in the table below. This study intends to target exposures equivalent to those observed with a 60 mg once-daily dose at steady state in adults (area under the concentration versus time curve during 1 dosing interval [AUCT] of 13.7 μgxh/mL [95% confidence interval (CD: 11.2, 16.7 μgxh/m14. Based on the exposure data obtained from the sentinel cohort, the doses may be adjusted if required to achieve the targeted exposure in the main cohort.
Compound,hydrophilic-lipophilic balance (HLB) value [1],area under the concentration versus time curve during 1 dosing interval [AUCT] [2] [μgxh/mL]
Poloxamer 188,about 29,–
"CCCCCCCCCCCCOS(=O)(=O)[O-].[Na+] [SLS, Sodium lauryl sulfate]",about 40,–
"N#Cc1ccc(Cn2ccc(NC(=O)Cc3ccc(C4(C(F)(F)F)CC4)cc3)n2)nc1 [NBI-827104, N-[1-(5-cyano-pyridin-2-ylmethyl)-1H-pyrazol-3-yl]-2-[4-(1-trifluoromethyl-cyclopropyl)-phenyl]-acetamide]",–,13.7
